US20050267014A1, “Pharmaceutical composition comprising factor VII polypeptides and tranexamic acid” (Novo Nordisk HealthCare A/G, priority 2001, published 2005)

Experiments:
[1] = test system: clots formed by normal human plasma; test: Clot lysis assay, normal human plasma diluted 10-fold, turbidity at 650 nm; type: biochemical; settings: in the presence of 10 nM FVIIa
Procedure: Clot lysis assay: Normal human plasma diluted 10-fold with buffer (20 mM HEPES, 150 mM NaCl, 5 mM CaCl, pH 7.4) containing lapidated recombinant tissue factor (Innovin, Dade Behring, 2000-fold dilution), rFVIIa (Novo Nordisk A/S Bagsvaerd, Denmark, various concentrations) and t-PA (American Diagnostica, 8 nM) was added to 96-well ELISA plates and turbidity at 650 nm was measured over time at room temperature. Where indicated, Tranexamic acid (Sigma, various concentrations) was included.

whole human blood = test: Whole blood rotation thrombelastography (ROTEG) clot strength; settings: tranexamic acid in addition to FVIIa, tPA 2 nM

Question: How did the “Tranexamic acid concentration at which prolongation of clot lysis time was optimal” value [1] turn out when `NC[C@H]1CC[C@H](C(=O)O)CC1` [Tranexamic acid] was run?
Answer: 1 µM

Question: What about the “effect on clot lysis time” value ([1]; t-PA 8 nM) of the same compound?
Answer: further prolongation of the clot lysis time

Question: What about the “mechanical strength of the clot” value (whole human blood) of the same compound?
Answer: increased the mechanical strength of the clot

Question: What about the “overall survival time of the clot” value (whole human blood) of the same compound?
Answer: increased
